# According to US11913020B2, “Method for improving stem cell migration using ethionamide” (Samsung Life Public Welfare Foundation, priority 2017, dated 2024):
# Assays:
# [1] = tested on: human umbilical cord mesenchymal stem cells; conditions: ethionamide 10 or 100 μM, 24 hours incubation; scratch observed after 14 hours; compared to control not treated
# Procedure: To this end, human umbilical cord mesenchymal stem cells (5×10^4 cells) prepared according to the method described in Example 1 were dispensed into a 6-well plate, and simultaneously treated with ethionamide at 10 or 100 μM, followed by incubation for 24 hours. Subsequently, to inhibit cell proliferation, the cells were treated with mitomycin C at 10 μg/mL to allow a reaction for 2 hours, a scratch was made on the plate using a tip, followed by exchanging the medium with a fresh medium.
# CXCR4 = conditions: treated with ethionamide for 72 hours; compared with stem cells not treated (Control)
# Procedure: To this end, the human mesenchymal stem cells prepared according to the method described in Example 1 were treated with ethionamide for 72 hours, and then lysed with TRIzol (Ambion, USA). Subsequently, following the addition of chloroform (Sigma Aldrich, USA) and centrifugation, only a supernatant was transferred to a new tube, treated with isopropanol (Amresco, USA), and centrifuged to precipitate RNA. Afterward, the precipitated RNA was treated with 75% ethanol (Merck Millipore, USA) for washing, and the completely dried RNA was dissolved in DEPC water (Biosesang, Korea). 5 μg of RNA extracted from the human mesenchymal stem cells treated or not treated with ethionamide by the above-described method was used for cDNA synthesis, and here, for the cDNA synthesis, a cDNA synthesis kit (Invitrogen, USA) was used. Afterward, 10 pM of a primer (Bioneer, Korea) specific for CXCR4, which is a gene related to stem cell migration, and a SYBR green master mix (Applied Biosystems, USA) were added to the synthesized cDNA, and cDNA was amplified using a real time-PCR device (Applied Biosystems, USA), followed by assessment of the amplified result to measure an initial amount of cDNA.
# [2] = tested on: human umbilical cord mesenchymal stem cells; conditions: ethionamide 10 or 100 μM, 24 hours incubation; compared to control not treated
# Procedure: To this end, the human umbilical cord mesenchymal stem cells (5×10^4 cells) prepared by the method described in Example 1 were dispensed into a Transwell plate (Costar, USA) with an 8.0 μm pore size, and treated with ethionamide at 10 or 100 μM, followed by incubation for 24 hours. Subsequently, the cells were fixed with 4% paraformaldehyde and stained with hematoxylin, the inner side of the Transwell was wiped with a cotton tip, and then the number of cells present on the bottom surface of the Transwell was measured using a microscope.
smiles,measurement,setting,value
"CCc1cc(C(N)=S)ccn1 [ethionamide, 2-ethylpyridine-4-carbothioamide]",migration ability of human mesenchymal stem cells (number of migrating stem cells),[1],significantly increased
same,expression level of the CXCR4 gene,CXCR4,at least 4 fold
same,invasion ability of human mesenchymal stem cells (number of cells on bottom surface of Transwell),[2],significantly increased
